Assay results: patent US9963476B2, “Antioxidant compound having anti atherosclerotic effect and preparation thereof” (Council of Scientific and Industrial Research, priority 2015, dated 2018)

Tests used:
[1] = system: AMPK1-α phosphorylation (Thr-172); assay: Western blot of AMPK phosphorylation in HAEC; format: cell-based, human; settings: H2O2 500 μM, 2.5 μM, 8 h
Method: Previously, it was shown that AMPK co-immunoprecipitates with cardiac endothelial NO synthase (eNOS) and phosphorylates Ser-1177 in the presence of Ca^2+-calmodulin (CaM) to activate eNOS both in vitro and during ischaemia in rat hearts (FEBS Lett. (1999) 443:285-289). To test whether Mito-Esc mediates increased phosphorylation of eNOS through AMPK activation, initially, HAEC were treated various concentrations of Mito-Esc (1-5 μM) for 8 h and AMPK1-α phosphorylation (Thr-172) levels were measured. […] Next, we investigated the phospho-AMPK1-α levels in HAEC treated with H2O2 in the presence or absence of either Mito-Esc or native esculetin.

[2] = system: caspase-3 and -8 activation in HAEC; assay: Caspase-3 and -8 activity in HAEC lysates; format: cell-based, human; settings: 2.5 μM pretreatment
Method: HAEC were washed twice with cold DPBS and lysed in buffer containing 10-mM Tris-HCl, 10-mM NaH2PO4/Na2HPO4 (pH, 7.5). 130-mM NaCl. 1% Triton, and 10-mM sodium pyrophosphate. Cell lysates were incubated with either with caspase-3 fluorogenic substrate (N-acetyl-Asp-Glu-Val-Asp-7-amido-4-methylcoumarin) or caspase-8 fluorogenic substrate (N-acetyl-Ileu-Glu-Thr-Asp-7 amido-4-methylcoumarin) at 37° C. for 1 h. The 7-amido-4-methyl-coumarin liberated was measured in a multi mode reader (PerkinElmer) with λex=380 nm and λem=460 nm.

HAEC = assay: Cellular uptake: Mito-Esc/esculetin quantified by ESI-MS in cytosolic and mitochondrial fractions of HAEC; format: in vitro ADME, human; settings: HAEC, 2.5 μM, 24 h
Method: After the treatment, cells were washed thrice with PBS. Similarly Mito-Esculetin+ Ang-II treatment group, Ang-II alone treatment group and control Apo E^−/− mice aortic tissue was taken. The isolation of mitochondrial and cytosolic extracts was carried out using a commercially available Proteo Extract Cytosol/Mitochondria Fractionation Kit (Cat. no. QIA88-Merck, USA) according to manufacturer's instructions. Initially, mitochondrial and cytosolic fractions were separated using a commercially available kit as mentioned elsewhere. Mito-Esc was quantified in the mitochondrial and cytosolic fractions obtained from HAEC and aorta of ApoE^−/− mice of different treatment groups as mentioned in Animal Experiments section (Table-1). Electrospray ionization (ESI)-MS. ESI-MS (positive mode) measurements were performed using a quadrupole time-of-flight mass spectrometer (QSTAR XL, Applied Biosystems/MDS Sciex, Foster City, Calif., USA). The data acquisition was under the control of Analyst QS software (Applied Biosystems). For the CID (collision-induced dissociation) experiments, the precursor ions were selected using the quadrupole analyzer and the product ions were analyzed using the TOF analyzer.

[3] = system: human aortic endothelial cells (HAEC); assay: Trypan blue cell viability assay, oxidant-induced endothelial cell death; format: cell-based; settings: 2.5 μM, 2 h pretreatment, H2O2 500 μM or Ang-II 500 nM, 24 h
Method: Human aortic endothelial cells (HAECs) were obtained from ATCC (Manassas, Va.) and maintained (37° C. 5% CO2) in basal medium supplemented with 10% FBS, VEGF (5 ng/mL), hEGF (5 ng/mL), hFGF (5 ng/mL), IGF-1 (15 ng/mL), ascorbic acid (50 μg/mL), hydrocortisone (1 μg/mL), amphotericin (15 ng/mL), gentamicin (30 ng/mL) and heparin (0.75 Units/mL). Cells used in this study were between passages 4 and 9. Esculetin, Mito-Esc, TPP and nitric oxide synthase inhibitor (L-NAME) were added 2 h before the addition of H2O2 or Ang-II.
At the end of the treatments, cells were harvested and re-suspended in 0.4% trypan blue (Life Technologies) and percent cell viability was counted using cell countess chamber (Life Technologies).
For this, cells were pretreated for 2 h with either Mito-Esc or esculetin before they were incubated with either H2O2 or Ang-II.

[4] = system: nitric oxide generation in HAEC; assay: Intracellular nitric oxide levels by DAF-2DA fluorescence; format: cell-based, human; settings: H2O2 500 μM, 2.5 μM, 4 h
Method: Intracellular nitric oxide levels were monitored by using the Diaminofluorescein-diacetate (DAF-2DA) fluorescence probe. After the treatments, cells were washed with DPBS and incubated in fresh culture medium without fetal bovine serum (FBS). DAF-2DA was added at a final concentration of 5 μM, and the cells were incubated for 30 minutes. The cells were washed twice with DPBS and maintained in culture medium. Fluorescence was monitored by using Olympus fluorescence microscope with FITC filter (λex=488 nm and […]). Fluorescence intensity was calculated by Image-Pro plus7.0 software.
To gain mechanistic insight on Mito-Esc-mediated protection of endothelial cells from oxidant-induced endothelial cell death, initially we hypothesized that Mito-Esc may augment intracellular nitric oxide generation. To study this, HAEC were treated with both Mito-Esc and esculetin in the presence or absence of H2O2 for a period of 4 h and nitric oxide (NO) levels were monitored by DAF-2 derived green fluorescence. Previously, it has been shown that DAF-2 forms a fluorescent triazole-type product in the presence of an oxidant derived from nitric oxide and oxygen interaction (Proc. Natl. Acad. Sci. USA 99: 11127-11132; 2002.; Am. J. Physiol. Regul. Integ. Comp. Physiol. 286:R344-R431; 2004). […] Next, we investigated the possible role of endothelial nitric oxide synthase (eNOS) in mediating the Mito-Esc induced NO generation in HAEC. For this, endothelial cells were treated with various concentrations of Mito-Esc (1-5 μM) for a period of 8 h. […] To further substantiate the results of DAF fluorescence, eNOS phosphorylation was measured in HAEC incubated with either with H2O2 or Ang-II for 8 h in cells pretreated with Mito-Esc or native esculetin. It was observed that both H2O2 and Ang-II caused a reduction in Phospho eNOS (Ser-1177) levels (FIG. 4D). Ang-II treatment imposed a drastic inhibition of phospho-eNOS levels when compared to H2O2 treatment in endothelial cells (FIG. 4D).

[5] = system: Ang-II-induced H2O2 production in HAEC; assay: H2O2 levels by Amplex red assay; format: cell-based, human; settings: Ang-II 500 nM, 16 h
Method: Amplex red reagent was used to detect the released H2O2 from cells. […] Immediately, formation of resorufin fluorescence was measured in multi mode reader (PerkinElmer) with λex=540 and λem=585.
Ang-II is known to increase oxidative stress through increased production of H2O2 (Doughan A K, Harrison D G, Dikalov S I. Circ Res (2008) 102:488-96). […] Further, we assessed the effect of Mito-Esc on H2O2-induced mitochondrial membrane depolarization. HAEC were treated with H2O2 (500 μM) in the presence or absence of Mito-Esc for a period of 16 h and mitochondrial membrane potential was measured using a mitochondrial membrane sensor kit. Mito-Sensor is a cationic dye that fluoresces differently in apoptotic and nonapoptotic cells. […] In apoptotic cells, membrane potentials are altered and the Mito-Sensor dye cannot accumulate in mitochondria and, thus, remain as monomers leading to a green fluorescence.

[6] = system: Ang-II-induced atherosclerosis in ApoE−/− mice; assay: Serum lipid profile of Ang-II treated ApoE−/− mice; format: in vivo; settings: serum, ApoE−/− mice, 45 days; Ang-II alone or Ang-II + Mito-Esc
Method: Experiments were conducted in 2-month-old male apolipoprotein E knockout (ApoE^−/−) mice according to the guidelines formulated for care and use of animals in scientific research (ICMR, New Delhi, India) at a CPCSEA (Committee for the Purpose of Control and Supervision of Experiments on Animals) registered animal facility. […] Animals were randomly divided into 3 groups each n=7:1) control 2) Ang-II treatment and 3) Mito-Esculetin+Ang-II treatment. Ang-II and Mito-Esculetin treatment groups received Ang-II (sigma) at a dose of 1.44 mg/kg/day for 6 weeks through sub-cutaneous route where as control group received normal saline. Mito-Esculetin treatment group received the compound at a dose of 0.5 mg/kg/day in normal drinking water. All animals were fed on normal chow throughout the study. After 6 weeks, all groups of animals were sacrificed as per standard protocols for euthanasia.
We further analyzed the vascular remodelling employing histological stains in tissue sections of thoracic aortas. […] In tune with this, we have also measured Mac-3 levels by flow cytometry.

Compound	AMPK1-α phosphorylation in the presence of H2O2 [1]	H2O2 and Ang-II-induced caspase-3 and -8 activation [2]	Cytosolic fraction (HAEC)	oxidant (H2O2 and Ang-II)-induced endothelial cell death [3]	H2O2-mediated depletion of NO levels [4]	H2O2 generation compared to untreated conditions [5]	HDL [6]	LDL [6]	Total Cholesterol [6]	Triglycerides [6]	VLDL [6]
O=c1ccc2cc(O)c(O)cc2o1 [Esculetin, 6,7-dihydroxycoumarin, reference compound]	significantly decreased	marginal effect	6249 ± 235 nmol/mg protein	but not esculetin significantly inhibited	did not show any noticeable effect	–	–	–	–	–	–
c1ccc(P(c2ccccc2)c2ccccc2)cc1 [TPP^+, triphenylphosphonium cation]	–	–	–	did not have any appreciable cytotoxic/cytoprotective effect	–	–	–	–	–	–	–
Angiotensin-II (DRVYIHPF; Angiotensin-2; UniProt P01019 25-32, looked up) [Ang-II, inducer of oxidative stress and atherosclerosis in the models, reference compound]	–	–	–	–	–	around 2.7 fold	02.21 ± 1.2 mg/dL	423.93 ± 29.6 mg/dL	656.19 ± 34.2 mg/dL	234.50 ± 21.5 mg/dL	46.9 ± 2.2 mg/dL
